Target: T1, human kinase Mps-1 (Homo sapiens, UniProt P33981)
T1 construct: N-terminally GST-tagged human full length recombinant Mps-1 kinase; GST (N); purchased Invitrogen, Karslruhe, Germany PV4071
T1 sequence (P33981 1-857): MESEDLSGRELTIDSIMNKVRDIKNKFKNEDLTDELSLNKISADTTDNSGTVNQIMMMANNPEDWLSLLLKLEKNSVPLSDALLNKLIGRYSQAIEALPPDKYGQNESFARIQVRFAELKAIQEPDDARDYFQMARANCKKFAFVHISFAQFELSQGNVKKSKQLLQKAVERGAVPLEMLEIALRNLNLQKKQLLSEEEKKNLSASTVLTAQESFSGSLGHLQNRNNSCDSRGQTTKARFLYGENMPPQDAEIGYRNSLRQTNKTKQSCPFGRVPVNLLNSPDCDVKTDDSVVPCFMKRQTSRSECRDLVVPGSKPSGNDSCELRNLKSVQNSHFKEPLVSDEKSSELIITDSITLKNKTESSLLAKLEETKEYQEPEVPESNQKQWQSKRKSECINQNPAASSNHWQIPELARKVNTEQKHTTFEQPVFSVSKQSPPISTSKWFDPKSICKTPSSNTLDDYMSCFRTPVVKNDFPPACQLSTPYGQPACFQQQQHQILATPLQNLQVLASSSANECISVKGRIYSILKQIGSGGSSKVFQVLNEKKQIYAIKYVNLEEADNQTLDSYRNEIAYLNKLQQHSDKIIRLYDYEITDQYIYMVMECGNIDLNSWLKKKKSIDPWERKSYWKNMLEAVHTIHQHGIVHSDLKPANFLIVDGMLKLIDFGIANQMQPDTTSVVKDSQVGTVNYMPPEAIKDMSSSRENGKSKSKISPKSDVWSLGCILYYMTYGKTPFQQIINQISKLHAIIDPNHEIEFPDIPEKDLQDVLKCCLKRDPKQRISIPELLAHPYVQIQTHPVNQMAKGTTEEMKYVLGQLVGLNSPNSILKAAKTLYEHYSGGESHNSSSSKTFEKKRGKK
Experiment: Mps-1 kinase assay (TR-FRET)
Format: biochemical
Settings: GST-tagged human full length recombinant Mps-1; 10 μM ATP; 1 μM peptide substrate; 60 min at 22° C.
Method: The human kinase Mps-1 phosphorylates a biotinylated substrate peptide. Detection of the phosphorylated product is achieved by time-resolved fluorescence resonance energy transfer (TR-FRET) from Europium-labelled anti-phospho-Serine/Threonine antibody as donor to streptavidin labelled with cross-linked allophycocyanin (SA-XLent) as acceptor. Compounds are tested for their inhibition of the kinase activity.
N-terminally GST-tagged human full length recombinant Mps-1 kinase (purchased from Invitrogen, Karslruhe, Germany, cat. no PV4071) was used. As substrate for the kinase reaction a biotinylated peptide of the amino-acid sequence […] (C-terminus in amide form, purchased from Biosynthan GmbH, Berlin) was used.
The concentration of Mps-1 in the assay was adjusted to the activity of the enzyme lot and was chosen appropriate to have the assay in the linear range, typical enzyme concentrations were in the range of about 1 nM (final conc. in the 5 μl assay volume).
The resulting mixture was incubated 1 h at 22° C. to allow the binding of the phosphorylated peptide to the anti-phospho(Ser/Thr)-Europium-antibody. Subsequently the amount of phosphorylated substrate was evaluated by measurement of the resonance energy transfer from the Europium-labelled anti-phospho(Ser/Thr) antibody to the Streptavidin-XLent. Therefore, the fluorescence emissions at 620 nm and 665 nm after excitation at 350 nm was measured in a Viewlux TR-FRET reader (PerkinElmer LAS, Rodgau-Jügesheim, Germany). The “blank-corrected normalized ratio” (a Viewlux specific readout, similar to the traditional ratio of the emissions at 665 nm and at 622 nm, in which blank and Eu-donor crosstalk are subtracted from the 665 nm signal before the ratio is calculated) was taken as the measure for the amount of phosphorylated substrate.

IC50 [nM]	Compound
28	Cc1cc(-c2cnc3c(NCCCC(C)O)nc(C4=CCOCC4)cn23)ccc1C(=O)NC1CC1 (stereo not shown) [Example 6-12, N-cyclopropyl-4-{6-(3,6-dihydro-2H-pyran-4-yl)-8-[(4-hydroxypentyl)amino]imidazo[1,2-a]pyrazin-3-yl}-2-methylbenzamide]
14.2	C=CCOC(=O)CCCNc1nc(-c2ccccc2)cn2c(-c3ccc(C(=O)NC4CC4)cc3)cnc12 [Example 3-44, Allyl 4-({3-[4-(cyclopropylcarbamoyl)phenyl]-6-phenylimidazo[1,2-a]pyrazin-8-yl}amino)butanoate]
2.3	O=C(NC1CC1)c1ccc(-c2cnc3c(NCc4ccc(Cl)s4)nc(-c4ccncc4)cn23)cc1 [Example 3-31, 4-[8-{[(5-chlorothiophen-2-yl)methyl]amino}-6-(pyridin-4-yl)imidazo [1,2-a]pyrazin-3-yl]-N-cyclopropylbenzamide]
3.7	C=C(C)CNc1nc(-c2ccccc2)cn2c(-c3ccc(C(=O)NC4CC4)cc3)cnc12 [Example 3-40, N-Cyclopropyl-4-{8-[(2-methylprop-2-en-1-yl)amino]-6-phenylimidazo[1,2-a]pyrazin-3-yl}benzamide]
2	Cc1cc(-c2cnc3c(NCC(C)(C)O)nc(Oc4ccccc4)cn23)ccc1C(=O)NC1CC1 [Example 13-4, N-cyclopropyl-4-{8-[(2-hydroxy-2-methylpropyl)amino]-6-phenoxy-imidazo[1,2-a]pyrazin-3-yl}-2-methylbenzamide]
19.3	O=C(NC1CC1)c1ccc(-c2cnc3c(NC[C@@H](O)CO)nc(-c4ccncc4)cn23)cc1 [Example 3-37, N-cyclopropyl-4-{8-[(2,3-dihydroxypropyl)amino]-6-(pyridin-4-yl)imidazo [1,2-a]pyrazin-3-yl}benzamide]
140	Cc1cc(-c2cnc3c(NCCC(F)(F)F)nc(CN4CCCCC4)cn23)ccc1C(=O)NC1CC1 [Example 11-1, N-cyclopropyl-2-methyl-4-{6-(piperidin-1-ylmethyl)-8-[(3,3,3-trifluoropropyl)amino]imidazo[1,2-a]pyrazin-3-yl}benzamide]
5.5	COCCCNc1nc(-c2ccncc2)cn2c(-c3ccc(C(=O)NC4CC4)cc3)cnc12 [Example 3-24, N-cyclopropyl-4-{8-[(3-methoxypropyl)amino]-6-(pyridin-4-yl)imidazo [1,2-a]pyrazin-3-yl} benzamide]
< 1	Cc1cc(-c2cnc3c(NCCC(F)(F)F)nc(Sc4ccccc4)cn23)ccc1C(=O)NC1CC1 [Example 15-2, N-cyclopropyl-2-methyl-4-{6-(phenylsulfanyl)-8-[(3,3,3-trifluoropropyl)amino]imidazo[1,2-a]pyrazin-3-yl}benzamide]
2.8	Cn1nccc1CNc1nc(-c2ccncc2)cn2c(-c3ccc(C(=O)NC4CC4)cc3)cnc12 [Example 3-28, N-cyclopropyl-4-[8-{[(1-methyl-1H-pyrazol-5-yl)methyl]amino}-6-(pyridin-4-yl)imidazo [1,2-a]pyrazin-3-yl] benzamide]
2.1	CCCNc1nc(-c2ccncc2)cn2c(-c3ccc(C(=O)NC4CC4)cc3)cnc12 [Example 3-3, N-cyclopropyl-4-[8-(propylamino)-6-(pyridin-4-yl)imidazo[1,2-a]pyrazin-3-yl]benzamide]
10.1	CC(C)CNc1nc(-c2ccccc2)cn2c(-c3ccc(C(=O)NC4CC4F)cc3)cnc12 (stereo not shown) [Example 2-2, N-(2-fluorocyclopropyl)-4-{8-[(2-methylpropyl)amino]-6-phenylimidazo [1,2-a]pyrazin-3-yl} benzamide]

Second part, the compound before the results:

Compound	IC50 [nM]
CC(C)CNc1nc(-c2ccc(F)nc2)cn2c(-c3ccc(C(=O)NC4CC4)cc3)cnc12 [Example 1-5, N-cyclopropyl-4-{6-(6-fluoropyridin-3-yl)-8-[(2-methylpropyl)amino]imidazo[1,2-a]pyrazin-3-yl}benzamide]	4.2
CC(C)CNc1nc(-c2ccnc(Cl)c2)cn2c(-c3ccc(C(=O)NC4CC4)cc3)cnc12 [Example 1-7, 4-{6-(2-chloropyridin-4-yl)-8-[(2-methylpropyl)amino]imidazo[1,2-a]pyrazin-3-yl}-N-cyclo-propylbenzamide]	4.2
CC(=O)Nc1ccc(-c2cn3c(-c4ccc(C(=O)NC5CC5)cc4)cnc3c(NCC(C)C)n2)cn1 [Example 1-25, 4-{6-[6-(acetylamino)pyridin-3-yl]-8-[(2-methyl-propyl)amino]imidazo [1,2-a]pyrazin-3-yl}-N-cyclopropylbenzamide]	8.9
Cc1cc(-c2cnc3c(NCCC(F)(F)F)nc(-c4cn[nH]c4)cn23)ccc1C(=O)NC1CC1 [Example 1-78, N-cyclopropyl-2-methyl-4-{6-(1H-pyrazol-4-yl)-8-[(3,3,3-trifluoro-propyl)amino]imidazo [1,2-a]pyrazin-3-yl} benzamide]	4.7
O=C(NC1CC1)c1ccc(-c2cnc3c(NCCC(F)(F)F)nc(-c4ccn[nH]4)cn23)cc1Cl [Example 1-38, 2-chloro-N-cyclopropyl-4-{6-(1H-pyrazol-5-yl)-8-[(3,3,3-trifluoropropyl)amino]imidazo[1,2-a]pyrazin-3-yl}benzamide]	14.1
Cc1cc(-c2cnc3c(NCCC(F)(F)F)nc(-c4c(C)noc4C)cn23)ccc1C(=O)NC1CC1 [Example 1-74, N-cyclopropyl-4-{6-(3,5-dimethyl-1,2-oxazol-4-yl)-8-[(3,3,3-trifluoro-propyl)amino]imidazo [1,2-a]pyrazin-3-yl}-2-methylbenzamide]	4.1
Cn1nccc1CNc1nc(-c2ccoc2)cn2c(-c3ccc(C(=O)NC4CC4)c(Cl)c3)cnc12 [Example 1-47, 2-chloro-N-cyclopropyl-4-[6-(furan-3-yl)-8-{[(1-methyl-1H-pyrazol-5-yl)methyl]amino}imidazo [1,2-a]pyrazin-3-yl] benzamide]	25.5
CC(C)(O)CNc1nc(-c2ccncc2)cn2c(-c3ccc(C(=O)NC4CC4)c(F)c3)cnc12 [Example 1-57, N-cyclopropyl-2-fluoro-4-{8-[(2-hydroxy-2-methylpropyl)amino]-6-(pyridin-4-yl)imidazo [1,2-a]pyrazin-3-yl} benzamide]	24.1
O=C(NC1CC1)c1ccc(-c2cnc3c(NCCCO)nc(-c4ccncc4)cn23)cc1 [Example 1-85, N-cyclopropyl-4-{8-[(3-hydroxypropyl)amino]-6-(pyridin-4-yl)imidazo[1,2-a]pyrazin-3-yl}benzamide]	9.1
CC(C)CNc1nc(-c2cnn(C)c2)cn2c(-c3ccc(C(=O)NC4CC4)cc3)cnc12 [Example 1-8, N-cyclopropyl-4-{8-[(2-methylpropyl)amino]-6-(1-methyl-1H-pyrazol-4-yl)imidazo[1,2-a]pyrazin-3-yl}benzamide]	4.6
CCOc1ccc(-c2cn3c(-c4ccc(C(=O)NC5CC5)c(C)c4)cnc3c(NCCC(F)(F)F)n2)cn1 [Example 1-72, N-cyclopropyl-4-{6-(6-ethoxypyridin-3-yl)-8-[(3,3,3-trifluoropropyl)amino]imidazo[1,2-a]pyrazin-3-yl}-2-methyl-benzamide]	9.9
CC(C)CNc1nc(C2=CCN(C)CC2)cn2c(-c3ccc(C(=O)NC4CC4)cc3)cnc12 [Example 1-27, N-cyclopropyl-4-{8-[(2-methylpropyl)amino]-6-(1-methyl-1,2,3,6-tetra-hydropyridin-4-yl)imidazo[1,2-a]pyrazin-3-yl}benzamide]	7.5
Cc1cc(-c2cnc3c(NCCC(F)(F)F)nc(-c4cncnc4)cn23)ccc1C(=O)NC1CC1 [Example 1-73, N-cyclopropyl-2-methyl-4-{6-(pyrimidin-5-yl)-8-[(3,3,3-trifluoropropyl)amino]imidazo[1,2-a]pyrazin-3-yl}benzamide]	21.4
